From patent US8933195B2, “Histone deacetylase inhibitors and synthetic method thereof and use thereof in manufacture of medicaments” (Nanjing Yoko Biomedical R & D Ltd., priority 2011, dated 2015)

Columns and labels:
[1] = system: A549 (human lung cancer cells); experiment: MTT cancer cell growth inhibition; format: cell-based; settings: 72 h
Outline: (§1)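 Cells in DMEM or 1640 + 10% FBS, 1500 cells/well, overnight then treated 72 h at 37 °C, 5% CO2 with compound 10^−5–10^−10 M final (0.1% DMSO control). MTT added 4 h, formazan dissolved in DMSO, read at 570 nm; survival rate calculated.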

[2] = system: BGC-823 (human gastric cancer cells); experiment: MTT cancer cell growth inhibition; format: cell-based; settings: 72 h, read-out: GI50 BGC823
Outline: as §1

[3] = system: HT1080 (human fibrosarcoma cells); experiment: MTT cancer cell growth inhibition; format: cell-based; settings: HT-1080, 72 h
Outline: as §1

[4] = system: Hela (human cervical cancer cells); experiment: MTT cancer cell growth inhibition; format: cell-based; settings: 72 h
Outline: as §1

[5] = system: MCF-7 (human breast cancer cells); experiment: MTT cancer cell growth inhibition; format: cell-based; settings: MCF7, 72 h
Outline: as §1

PANC-1 = experiment: MTT cancer cell growth inhibition; format: cell-based; settings: Homo sapiens, 72 h
Outline: as §1

[6] = system: U937 (human leukemia cells); experiment: MTT cancer cell growth inhibition; format: cell-based; settings: U-937, 72 h
Outline: as §1

[7] = system: human colon cancer HCT-116; experiment: Subcutaneously transplanted tumors in nude mice; format: in vivo, BALB/cA nude mice; parameters: key to RTV (mean ± SD): RTV = Vt/V0, tumor volume at time t over volume at d0; settings: for 1-T/C tumor inhibition rate / TV (mean ± SD) d0 / Weight d0 / RTV (mean ± SD) / TV (mean ± SD) d21: Table 2.1, 20 mg/kg q3d × 3w iv; for 1-T/C tumor inhibition rate: after three weeks; for RTV (mean ± SD) / TV (mean ± SD) d21: d21; for Tumor Volume TV (mean ± SD) d 0 / Tumor Volume TV (mean ± SD) d 3 / Tumor Volume TV (mean ± SD) d 7 / Tumor Volume TV (mean ± SD) d 10 / Tumor Volume TV (mean ± SD) d 14 / Tumor Volume TV (mean ± SD) d 17: Table 2.2; for Tumor Volume TV (mean ± SD) d 0 / Tumor Volume TV (mean ± SD) d 3 / Tumor Volume TV (mean ± SD) d 7 / Tumor Volume TV (mean ± SD) d 10 / Tumor Volume TV (mean ± SD) d 14 / Tumor Volume TV (mean ± SD) d 17 / Weight (mean ± SD) d 0 / Weight (mean ± SD) d 3 / Weight (mean ± SD) d 7 / Weight (mean ± SD) d 10 / Weight (mean ± SD) d 14 / Weight (mean ± SD) d 17 / Weight (mean ± SD) d 21: 20 mg/kg; for Weight (mean ± SD) d 0 / Weight (mean ± SD) d 3 / Weight (mean ± SD) d 7 / Weight (mean ± SD) d 10 / Weight (mean ± SD) d 14 / Weight (mean ± SD) d 17 / Weight (mean ± SD) d 21: Table 2.3
Experimental: The solvents are isopropanol and anhydrous ethanol (mixed in the volume ratio of 1:1). The test sample is dissolved with solvents and physiological saline in the ratio of 1:1 for use, and the above solvents and physiological saline are dissolved in the ratio of 1:1 as a negative control.
The number of mice in each group: 12 mice in the negative control group, and 6 mice in the administration group.
The cell strains are inoculated to the right axilla subcutaneous layer of the nude mice, with 5×10^6 per mouse. After formed, the transplanted tumors are passed down two generations in the nude mice and then used.
Tumor tissues in the vigorous growth period are cut into about 1.5 mm^3, and inoculated to the right axilla subcutaneous layer of the nude mice under aseptic conditions. For the subcutaneously transplanted tumors of the nude mice, the diameter of the transplanted tumors is measured by a vernier caliper. The mice are randomly grouped after the tumors grow to 100-200 mm^3. […] The diameter of the transplanted tumors is measured twice per week in the whole experimental process, and meanwhile the weight of the mice is weighed. The calculation formula of tumor volume (TV) is TV=½×a×b^2, where a and b represent length and width, respectively.
The relative tumor volume (RTV) is calculated according to the measured results, with the following calculation formula: RTV=Vt/V0, where V0 is the tumor volume obtained by measurement during administration in different cages (i.e., d0), Vt is the tumor volume obtained by measurement at each time. […] (Wc−WT)Wc×100%, where Wc is the tumor weight of the control group, and WT is the tumor weight of the treatment group.

Row | Compound | GI50 [1] | GI50 [2] | GI50 [3] | GI50 [4] | GI50 [5] | GI50 (PANC-1) | GI50 [6] | 1-T/C tumor inhibition rate [7] | TV (mean ± SD) d0 [7] | Weight d0 [7] | RTV (mean ± SD) [7] | TV (mean ± SD) d21 [7] | Tumor Volume TV (mean ± SD) d 0 [7] | Tumor Volume TV (mean ± SD) d 3 [7] | Tumor Volume TV (mean ± SD) d 7 [7] | Tumor Volume TV (mean ± SD) d 10 [7] | Tumor Volume TV (mean ± SD) d 14 [7] | Tumor Volume TV (mean ± SD) d 17 [7] | Weight (mean ± SD) d 0 [7] | Weight (mean ± SD) d 3 [7] | also measured
1 | C/C=C1\NC(=O)c2csc(n2)CNC(=O)C[C@@H](/C=C/CCSC(=O)CCCCCCC)OC(=O)[C@H](Cc2ccc(O)cc2)NC1=O [Compound 1-8] | 100 nM | 300 nM | 70 nM | 100 nM | 100 nM | 100 nM | 20 nM | 69.49% | 116 ± 22 mm^3 | 16.1 g | 3.17 ± 2.08 | 368 ± 241 mm^3 | 118 ± 22 mm^3 | 139 ± 15 mm^3 | 165 ± 28 mm^3 | 203 ± 69 mm^3 | 265 ± 127 mm^3 | 305 ± 142 mm^3 | 16.3 ± 1.0 g | 15.8 ± 1.1 g | Weight (mean ± SD) d 7 [7]: 15.1 ± 0.9 g; Weight (mean ± SD) d 10 [7]: 14.5 ± 1.2 g; Weight (mean ± SD) d 14 [7]: 14.0 ± 1.0 g; Weight (mean ± SD) d 17 [7]: 13.5 ± 0.9 g; Weight (mean ± SD) d 21 [7]: 12.9 ± 0.9 g
2 | C/C=C1\NC(=O)c2csc(n2)CNC(=O)C[C@@H](/C=C/CCSC(=O)CCCCCCC)OC(=O)[C@H](Cc2ccccc2)NC1=O [Compound 1-7] | 400 nM | 300 nM | 300 nM | 5000 nM | 700 nM | 1500 nM | 20 nM | 72.24% | 115 ± 20 mm^3 | 16.6 g | 2.89 ± 1.62 | 332 ± 186 mm^3 | 116 ± 21 mm^3 | 131 ± 11 mm^3 | 158 ± 26 mm^3 | 199 ± 68 mm^3 | 245 ± 107 mm^3 | 275 ± 132 mm^3 | 16.6 ± 1.1 g | 15.9 ± 0.7 g | Weight (mean ± SD) d 7 [7]: 15.1 ± 0.9 g; Weight (mean ± SD) d 10 [7]: 14.5 ± 1.2 g; Weight (mean ± SD) d 14 [7]: 14.0 ± 1.0 g; Weight (mean ± SD) d 17 [7]: 13.5 ± 1.0 g; Weight (mean ± SD) d 21 [7]: 13.2 ± 1.0 g
3 | C/C=C1\NC(=O)c2csc(n2)CNC(=O)C[C@@H](/C=C/CCSC(=O)CCCCCCC)OC(=O)[C@H](C(C)(C)C)NC1=O [Compound 1-6] | 500 nM | 400 nM | 1300 nM | 1000 nM | 600 nM | 3000 nM | 200 nM | 74.09% | 121 ± 28 mm^3 | 16.9 g | 2.69 ± 1.82 | 326 ± 221 mm^3 | 120 ± 28 mm^3 | 129 ± 15 mm^3 | 156 ± 23 mm^3 | 195 ± 58 mm^3 | 249 ± 110 mm^3 | 265 ± 122 mm^3 | 16.9 ± 1.0 g | 16.6 ± 1.8 g | Weight (mean ± SD) d 7 [7]: 15.9 ± 1.6 g; Weight (mean ± SD) d 10 [7]: 15.5 ± 1.6 g; Weight (mean ± SD) d 14 [7]: 14.8 ± 1.8 g; Weight (mean ± SD) d 17 [7]: 14.2 ± 1.7 g; Weight (mean ± SD) d 21 [7]: 13.1 ± 1.6 g
4 | C/C=C1\NC(=O)c2csc(n2)CNC(=O)C[C@@H](/C=C/CCSC(=O)CCCCCCC)OC(=O)[C@H](C)NC1=O [Compound 1-4] | 2900 nM | 2500 nM | 800 nM | 1300 nM | 200 nM | 1600 nM | 30 nM | 74.46% | 116 ± 23 mm^3 | 16.6 g | 2.65 ± 1.70 | 308 ± 198 mm^3 | 118 ± 23 mm^3 | 126 ± 12 mm^3 | 157 ± 26 mm^3 | 189 ± 52 mm^3 | 234 ± 103 mm^3 | 262 ± 132 mm^3 | 16.6 ± 1.2 g | 16.2 ± 1.4 g | Weight (mean ± SD) d 7 [7]: 14.8 ± 1.2 g; Weight (mean ± SD) d 10 [7]: 14.5 ± 1.0 g; Weight (mean ± SD) d 14 [7]: 13.8 ± 0.9 g; Weight (mean ± SD) d 17 [7]: 13.3 ± 0.9 g; Weight (mean ± SD) d 21 [7]: 13.0 ± 1.0 g
